Earlier results as cited in PubChem BioAssay AID1259409 (Chemical Carcinogenesis Research Information System (CCRIS), 2018).

Test system: rodent chemically induced tumor inhibition, incidence and multiplicity
Experiment: CCRIS tumor inhibitor studies
Details: Route [Inhibitor]: ORAL, Promoter: NONE USED

Compound | tumour outcome (control, treated, inhibition, significance) (Carcinogen: DIETHYLNITROSAMINE, 55-18-5, Dose [Inhibitor]: 0, 250 PPM IN DIET FOR 24 WK BEGINNING AT 28 D OF AGE (STUDY DURATION: 26 WK), Species: MOUSE, Strain/Sex: B6C3F1/MALE, Target Tissue: Type of Lesion: LIVER: ADENOMA, Dose [Carcinogen]: 5 UG/G BW IN 0.1 ML SALINE ONCE AT 15 D OF AGE) | tumour outcome (control, treated, inhibition, significance) (Dose [Inhibitor]: 0, 100 PPM IN DIET ADMINISTERED CONCURRENTLY WITH CARCINOGEN FOR 1 WK (STUDY DURATION: 82 WK), Species: RAT, Strain/Sex: BUFFALO/FEMALE, Target Tissue: Type of Lesion: LIVER: TUMOR, Dose [Carcinogen]: 1 PPM IN DIET FOR 1 WK) | tumour outcome (control, treated, inhibition, significance) (Dose [Inhibitor]: 0, 100 PPM IN DIET ADMINISTERED CONCURRENTLY WITH CARCINOGEN FOR 3 WK (STUDY DURATION: 82 WK), Species: RAT, Strain/Sex: BUFFALO/FEMALE, Target Tissue: Type of Lesion: LIVER: TUMOR, Dose [Carcinogen]: 1 PPM IN DIET FOR 3 WK) | tumour outcome (control, treated, inhibition, significance) (Dose [Inhibitor]: 0, 100 PPM IN DIET ADMINISTERED CONCURRENTLY WITH CARCINOGEN FOR 5 WK (STUDY DURATION: 82 WK), Species: RAT, Strain/Sex: BUFFALO/FEMALE, Target Tissue: Type of Lesion: LIVER: TUMOR, Dose [Carcinogen]: 1 PPM IN DIET FOR 5 WK) | tumour outcome (control, treated, inhibition, significance) (Dose [Inhibitor]: 0, 100 PPM IN DIET ADMINISTERED CONCURRENTLY WITH CARCINOGEN FOR 10 WK (STUDY DURATION: 82 WK), Species: RAT, Strain/Sex: BUFFALO/FEMALE, Target Tissue: Type of Lesion: LIVER: TUMOR, Dose [Carcinogen]: 1 PPM IN DIET FOR 10 WK) | tumour outcome (control, treated, inhibition, significance) (Dose [Inhibitor]: 0, 100 PPM IN DIET ADMINISTERED CONCURRENTLY WITH CARCINOGEN FOR 15 WK (STUDY DURATION: 82 WK), Species: RAT, Strain/Sex: BUFFALO/FEMALE, Target Tissue: Type of Lesion: LIVER: TUMOR, Dose [Carcinogen]: 1 PPM IN DIET FOR 15 WK) | tumour outcome (control, treated, inhibition, significance) (Carcinogen: 7,12-DIMETHYLBENZ[A]ANTHRACENE, 57-97-6, Dose [Inhibitor]: 0.068 MMOL/G IN DIET FOR 8 D BEGINNING 1 WK PRIOR TO CARCINOGEN DOSE (STUDY DURATION: 23 WK), Species: RAT, Strain/Sex: SPRAGUE-DAWLEY/FEMALE, Target Tissue: Type of Lesion: MAMMARY GLAND: TUMOR, Dose [Carcinogen]: 12 MG IN 1.0 ML OLIVE OIL ONCE) | tumour outcome (control, treated, inhibition, significance) (Carcinogen: BENZO[A]PYRENE, 50-32-8, Dose [Inhibitor]: 0.034 MMOL/G IN DIET BEGINNING 1 WK PRIOR TO FIRST CARCINOGEN DOSE AND CONTINUING FOR 3 D POST LAST CARCINOGEN DOSE FOR, Species: MOUSE, Strain/Sex: ICR/HA/FEMALE, Target Tissue: Type of Lesion: FORESTOMACH: TUMOR, Dose [Carcinogen]: 1 MG IN 0.2 ML CORN OIL 2/WK FOR 4 WK)
ClC1C(Cl)C(Cl)C(Cl)C(Cl)C1Cl (stereo not drawn) | 15/15 (100%), 15/15 (100%), 0%, not significant | 6/19 (32%), 1/20 (5%), 84%, not calculated | 6/19 (32%), 0/23 (0%), 100%, not calculated | 6/19 (32%), 0/17 (0%), 100%, not calculated | 6/19 (32%), 0/22 (0%), 100%, not calculated | 6/19 (32%), 0/13 (0%), 100%, not calculated | – | –
COc1cc2ccc(=O)oc2cc1O | – | – | – | – | – | – | 100%, 78%, 22%, not significant | 100%, 100%, 0%, not significant
